# Laboratory results from US20250188151A1, “C-JUN ANTAGONIST PEPTIDES” (The University of Bath, priority 2022, published 2025).
# Bridge positions count the residues as written; N and C are the ends. Peptide text beside a SMILES is read from it.
# Assays:
# [1] = target: cJun bZIP (Homo sapiens, UniProt P05412, S292Y); test: CD spectra and thermal denaturation of peptide/cJun heterodimers; settings: peptide (5 μM)/c-Jun (5 μM) heterodimer; Table 6
# [2] = target: T1, cJun/TRE DNA interaction (Homo sapiens, UniProt P05412, S292Y); test: CD cJun/TRE DNA antagonism (shift of TRE DNA peak at ~281 nm, Hill fit); assay type: biochemical; settings: ratio of CD IC50
# T1 construct: The same 60 amino acid c-Jun bZIP construct was used for all experiments; His-SUMO (N, cleaved yes); made in house; host or cells: E. coli
# Text: Briefly, in TBS the coding region for the essential gene dihydrofolate reductase (DHFR) is mutated to incorporate TRE sites so that introduction of c-Jun to this gene inside E. coli produces a transcriptional block that abrogates cell proliferation. The TRE site-bound c-Jun molecules sterically prevent RNA polymerase transcribing the essential gene and this can only be restored upon introduction of an effective c-Jun/TRE antagonist. Consequently, the survival of a particular cell is controlled by the ability of a peptide library member to remove the c-Jun transcriptional block and therefore to restore DHFR activity. TBS thus facilitates the identification of therapeutically valuable sequences. Further details for the TBS assay are provided in WO2020128015, which is incorporated herein by reference in its entirety. […] The TRE-DNA construct produces a positive CD peak at ˜281 nm, which decreases in intensity upon c-Jun binding. […] This method allows for the calculation of an IC50 value by fitting the titration data to a Hill equation. In some embodiments, the c-Jun antagonist is able to inhibit the DNA-binding activity of c-Jun within 10-fold of the ability of HingeW to inhibit the DNA-binding activity of c-Jun (e.g. the c-Jun antagonist has a reduced ability to inhibit the DNA-binding activity of c-Jun that is within 10-fold of that determined for HingeW). In some embodiments, the c-Jun antagonist is able to inhibit the DNA-binding activity of c-Jun within 9-fold, preferably within 8-fold, more preferably within 7-fold, even more preferably within 6-fold, yet more preferably within 5-fold of the ability of HingeW to inhibit the DNA-binding activity of c-Jun. The ability of the c-Jun antagonist and HingeW to inhibit the DNA-binding activity may be measured using the TBS assay (e.g. by quantifying the number of colonies) or by determining the IC50 using a circular dichroism assay described herein. Optionally, the c-Jun antagonist may have this activity when cross-linked. Methods for cross-linking peptides are described in more detail below.
# Therefore, the acidic domain was the initial focus for optimisation. 1 was iteratively truncated (2-6) to investigate the effect on c-Jun binding and c-Jun/TRE DNA antagonism. […] Thermal denaturation experiments were then used to determine the Tm of peptide-c-Jun heterodimers, which was used as an approximate measure of target engagement. CD was also used to investigate the ability of the functional activity of peptides in antagonising the c-Jun/TRE DNA interaction. The TRE-DNA construct used produces a positive CD peak at ˜281 nm (no c-Jun absorbance at this wavelength allows for direct measurement of DNA upon binding) which decreases in intensity upon c-Jun binding. […] This allowed for the calculation of an IC50 value by fitting the titration data to a Hill equation. […] The same 60 amino acid c-Jun bZIP construct was used for all experiments, regardless of antagonist peptide length.
# Sequence of cJun bZIP (P05412 with tags, fused parts or gaps S292Y): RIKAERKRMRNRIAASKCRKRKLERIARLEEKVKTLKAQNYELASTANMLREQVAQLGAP
# T1 sequence (P05412 with tags, fused parts or gaps S292Y): as above
Tm (° C.) [1],fold reduction in antagonism relative to 2 [2],fold better antagonism than 6 [2],fold reduction in antagonism relative to 3 [2],fold reduction in antagonism relative to 4 [2],fold reduction in cJun/TRE antagonism relative to 1 [2],fold increase in antagonism relative to the linear counterpart 5 [2],fold reduction in antagonism relative to 11 [2],Molecule
67.9 ± 0.9 °C,2 fold,–,–,–,–,–,–,Ac-LEKEAEELVVEEDVLEEEIEQLEERNYALRKEIEDLQKQLEKL-NH2 [Peptide 3]
62.8 ± 1.0 °C,–,1.7 fold,2.3 fold,1.7 fold,5.8 fold,–,–,Ac-LVVEEDVLEEEIEQLEERNYALRKEIEDLQKQLEKL-NH2 [Peptide 5]
67.2 ± 0.8 °C,–,–,–,–,–,1.8 fold,–,CC[C@H](C)[C@H](NC(=O)[C@H](CCC(=O)O)NC(=O)[C@@H]1CC(=O)NCCCC[C@H](NC(=O)[C@H](CC(N)=O)NC(=O)[C@H](CCCCN)NC(=O)[C@H](CCC(=O)O)NC(=O)[C@H](CCC(=O)O)NC(=O)[C@H](CC(C)C)NC(=O)[C@H](CCC(N)=O)NC(=O)[C@H](CCC(=O)O)NC(=O)[C@@H](NC(=O)[C@H](CCC(=O)O)NC(=O)[C@H](CCC(=O)O)NC(=O)[C@H](CCC(=O)O)NC(=O)[C@H](CC(C)C)NC(=O)[C@@H](NC(=O)[C@H](CC(=O)O)NC(=O)[C@H](CCC(=O)O)NC(=O)[C@H](CCC(=O)O)NC(=O)[C@@H](NC(=O)[C@@H](NC(=O)[C@H](CC(C)C)NC(C)=O)C(C)C)C(C)C)C(C)C)[C@@H](C)CC)C(=O)N[C@@H](C)C(=O)N[C@@H](CC(C)C)C(=O)N[C@@H](CCCCN)C(=O)N1)C(=O)N[C@@H](CCC(=O)O)C(=O)N[C@@H](CC(=O)O)C(=O)N[C@@H](CC(C)C)C(=O)N[C@@H](CCC(N)=O)C(=O)N[C@@H](CCCCN)C(=O)N[C@@H](CCC(N)=O)C(=O)N[C@@H](CC(C)C)C(=O)N[C@@H](CCC(=O)O)C(=O)N[C@@H](CCCCN)C(=O)N[C@@H](CC(C)C)C(=O)N[C@@H](Cc1ccc(O)cc1)C(N)=O [Peptide 8]
44.8 ± 1.2 °C,–,–,–,26.7 fold,–,–,14.8 fold,Ac-EAEELVVEEDVLEEEIEQLEERNYALRKEIEDL-NH2 [Peptide 25]
52.5 ± 1.4 °C,–,–,–,–,8.8 fold,–,–,CC[C@H](C)[C@H](NC(=O)[C@H](CCC(=O)O)NC(=O)[C@@H]1CC(=O)NCCCC[C@H](NC(=O)[C@H](CC(N)=O)NC(=O)[C@H](CCCCN)NC(=O)[C@H](CCC(=O)O)NC(=O)[C@H](CCC(=O)O)NC(=O)[C@H](CC(C)C)NC(=O)[C@H](CCC(N)=O)NC(=O)[C@H](CCC(=O)O)NC(=O)[C@@H](NC(=O)[C@H](CCC(=O)O)NC(=O)[C@H](CCC(=O)O)NC(=O)[C@H](CCC(=O)O)NC(=O)[C@H](CC(C)C)NC(=O)[C@@H](NC(=O)[C@H](CC(=O)O)NC(=O)[C@H](CCC(=O)O)NC(=O)[C@H](CCC(=O)O)NC(=O)[C@@H](NC(=O)[C@@H](NC(=O)[C@H](CC(C)C)NC(=O)[C@H](CCC(=O)O)NC(=O)[C@H](CCC(=O)O)NC(=O)[C@H](C)NC(=O)[C@H](CCC(=O)O)NC(C)=O)C(C)C)C(C)C)C(C)C)[C@@H](C)CC)C(=O)N[C@@H](C)C(=O)N[C@@H](CC(C)C)C(=O)N[C@@H](CCCCN)C(=O)N1)C(=O)N[C@@H](CCC(=O)O)C(=O)N[C@@H](CC(=O)O)C(=O)N[C@@H](CC(C)C)C(=O)N[C@@H](Cc1ccc(O)cc1)C(N)=O [Peptide 27] (Ac-EAEELVVEEDVLEEEIEQLEEKNKALKDEIEDLY-NH2; lactam 24-28)
